Where no end group is shown, it is not given here.

In assay [1] the test system is interleukin-1 alpha (IL-1 alpha). Put plainly: Ex vivo IL-1 alpha secretion by human skin biopsies (ELISA). The class given is cell-based. The settings on record: peptide 0.5 ppm 24 h, vs controls untreated by the peptide. As for the experimental part: The goal of this study is to determine the ex vivo effect of peptide SEQ ID No. 5 on the production of the IL-1 alpha cellular inflammation mediator by biopsies of human skin cultivated under standard conditions or subjected to stress by UVB radiation or SDS.
5 mm-diameter biopsies of human skin are maintained in culture at the air-liquid interface in the presence of standard culture medium. The samples are treated with a 1% dilution of a solution at 50 ppm of peptide SEQ ID No. 5 for 24 hours, and then irradiated by UVB radiation (200 mJ/cm^2) and put back in culture for 24 hours, or subjected to contact with SDS at 2.5% for 24 hours in the presence of the same concentration of peptide SEQ ID No. 5. Controls untreated by the peptide are carried out under the same conditions. At the end of the experiment, the quantity of interleukin-1 alpha salted out in the culture medium is assayed by the ELISA technique.
Background: In an ELISA, binding on a coated surface is turned into a signal by an enzyme label.

In the next assay the test system is HMG-CoA reductase. Put plainly: Expression of HMG-CoA reductase in normal human keratinocytes (immunofluorescence). The settings on record: peptide 0.5 ppm (1% of 50 ppm stock), 24 or 48 hours, anti-HMG-CoA reductase antibody, epifluorescence microscopy. The assay is classed as cell-based. As to the method: The goal of this study is to determine the influence of peptide SEQ ID No. 5 on the expression of HMG-CoA reductase in normal human keratinocytes.
Normal human keratinocytes in culture are treated with a 1% stock solution at 50 ppm of peptide SEQ ID No. 5 for 24 or 48 hours (the medium in the presence of the active ingredient is changed every 24 hours). The cells are then washed and fixed in cold methanol for 4 minutes at 4° C. The cells are incubated in the presence of a polyclonal rabbit antibody specific for HMG-CoA reductase (Millipore, Upstate), and then a secondary antibody coupled with a fluorescent dye. The cells are then examined by epifluorescence microscope (Nikon Eclipse E600 microscope).

As to “Arg-Gly-Lys-Ser-NH2 (RGKS-NH2) [SEQ ID No. 5]”, the “reduction of IL-1 alpha released in culture medium after SDS stress” value in assay [1] (SDS 2.5% for 24 hours with peptide) worked out at 58%. In addition, the “reduction of IL-1 alpha released in culture medium after UVB radiation” value in assay [1] (UVB 200 mJ/cm^2, 24 h culture) stood at 40%. Besides, in the assay with HMG-CoA reductase, the “HMG-CoA reductase expression (cytoplasmic fluorescence)” value is “more intense cytoplasmic fluorescence”.

The record behind these values is patent US8546339B2, “Soothing cosmetic or pharmaceutical composition comprising a peptide which activates HMG-CoA reductase” (ISP Investments Inc., priority 2008, dated 2013).
